The values that follow come from ChEMBL document CHEMBL4411344, “Synthesis and biological evaluation of new long-chain squaramides as anti-chagasic agents in the BALB/c mouse model” (Bioorg Med Chem, 2019).

Data set [1] in a line: Hepatotoxicity in Balb/c mouse infected with Trypanosoma cruzi MHOM/Pe/2011/Arequipa DTU 5 trypomastigotes assessed as increase in serum ALT to GPT level at 20 mg/kg, po once daily for 5 consecutive days starting from day 10 post infection measured on day 16 post infection relative to control. The format is toxicity, organism-based. Conditions: in vivo.
Data set [2] is described as follows: Hepatotoxicity in Balb/c mouse infected with Trypanosoma cruzi MHOM/Pe/2011/Arequipa DTU 5 trypomastigotes assessed as increase in total bilirubin level at 20 mg/kg, po once daily for 5 consecutive days starting from day 10 post infection measured on day 127 post infection by biochemical analysis relative to control. It counts as toxicity, organism-based. Conditions: in vivo.

Data set [3] is described as follows: Hepatotoxicity in Balb/c mouse infected with Trypanosoma cruzi MHOM/Pe/2011/Arequipa DTU 5 trypomastigotes assessed as increase in total bilirubin level at 20 mg/kg, po once daily for 5 consecutive days starting from day 10 post infection measured on day 16 post infection relative to control. Conditions: in vivo. The format is toxicity, organism-based.
The nature of data set [4]: Cardiotoxicity in Balb/c mouse infected with Trypanosoma cruzi MHOM/Pe/2011/Arequipa DTU 5 trypomastigotes assessed as decrease in ratio of creatine kinase in muscle to brain at 20 mg/kg, po once daily for 5 consecutive days starting from day 75 post infection measured on day 81 post infection relative to control. It counts as toxicity, organism-based. Conditions: in vivo.

A short description of data set [5]: Hepatotoxicity in Balb/c mouse infected with Trypanosoma cruzi MHOM/Pe/2011/Arequipa DTU 5 trypomastigotes assessed as increase in alkaline phosphatase level at 20 mg/kg, po once daily for 5 consecutive days starting from day 75 post infection measured on day 127 post infection relative to control. Conditions: in vivo. The format is toxicity, organism-based.
Data set [6] can be described thus: Cardiotoxicity in Balb/c mouse infected with Trypanosoma cruzi MHOM/Pe/2011/Arequipa DTU 5 trypomastigotes assessed as decrease in serum LDH level at 20 mg/kg, po once daily for 5 consecutive days starting from day 75 post infection measured on day 81 post infection relative to control. The format is toxicity, organism-based. Conditions: in vivo.
A short description of data set [7]: Cardiotoxicity in Balb/c mouse infected with Trypanosoma cruzi MHOM/Pe/2011/Arequipa DTU 5 trypomastigotes assessed as decrease in serum LDH level at 20 mg/kg, po once daily for 5 consecutive days starting from day 75 post infection measured on day 127 post infection relative to control. It counts as toxicity, organism-based. Conditions: in vivo.
Data set [8] can be described thus: Hepatotoxicity in Balb/c mouse infected with Trypanosoma cruzi MHOM/Pe/2011/Arequipa DTU 5 trypomastigotes assessed as increase in ratio of serum AST to GOT level at 20 mg/kg, po once daily for 5 consecutive days starting from day 75 post infection measured on day 127 post infection relative to control. The format is toxicity, organism-based. Conditions: in vivo.

Data set [9] is described as follows: Hepatotoxicity in Balb/c mouse infected with Trypanosoma cruzi MHOM/Pe/2011/Arequipa DTU 5 trypomastigotes assessed as increase in total bilirubin level at 20 mg/kg, po once daily for 5 consecutive days starting from day 75 post infection measured on day 127 post infection relative to control. The format is toxicity, organism-based. Conditions: in vivo.
For data set [10], the system named is Trypanosoma cruzi. In words: Antitrypanosomal activity against Trypanosoma cruzi MHOM/Pe/2011/Arequipa DTU 5 epimastigotes assessed as effect on parasite glycolytic pathway by measuring decrease in pyruvate excretion at IC25 after 72 hrs by 1H NMR method. The format is functional. Further details: scale not given: the % may be the effect or the level left.
The subject of data set [11] is Trypanosoma cruzi. In words: Antitrypanosomal activity against Trypanosoma cruzi MHOM/Pe/2011/Arequipa DTU 5 epimastigotes assessed as effect on parasite glycolytic pathway by measuring decrease in L-alanine excretion at IC25 after 72 hrs by 1H NMR method. It counts as functional, organism-based.
Data set [12] relates to Trypanosoma cruzi. The data set can be described thus: Antitrypanosomal activity against Trypanosoma cruzi MHOM/Pe/2011/Arequipa DTU 5 epimastigotes assessed as effect on parasite glycolytic pathway by measuring decrease in acetate excretion at IC25 after 72 hrs by 1H NMR method. The format is functional, organism-based.
Data set [13] is described as follows: Nephrotoxicity in Balb/c mouse infected with Trypanosoma cruzi MHOM/Pe/2011/Arequipa DTU 5 trypomastigotes assessed as decrease in serum uric acid level at 20 mg/kg, po once daily for 5 consecutive days starting from day 10 post infection measured on day 127 post infection relative to control. The format is toxicity, organism-based. Conditions: in vivo.
In data set [14] the test system is Trypanosoma cruzi. In words: Antitrypanosomal activity against Trypanosoma cruzi MHOM/Pe/2011/Arequipa DTU 5 epimastigotes assessed as effect on parasite glycolytic pathway by measuring decrease in D-lactate excretion at IC25 after 72 hrs by 1H NMR method. It counts as functional, organism-based.
Data set [15] is described as follows: Nephrotoxicity in Balb/c mouse infected with Trypanosoma cruzi MHOM/Pe/2011/Arequipa DTU 5 trypomastigotes assessed as decrease in serum uric acid level at 20 mg/kg, po once daily for 5 consecutive days starting from day 75 post infection measured on day 81 post infection relative to control. Conditions: in vivo. The format is toxicity, organism-based.
Data set [16] has as its system Trypanosoma cruzi. In words: Trypanocidal activity against Trypanosoma cruzi IRHOD/CO/2008/SN3 DTU 1 trypomastigotes derived from infected Balb/c mouse after 72 hrs by resazurin dye based assay. The format is functional, organism-based. Conditions: IRHOD/CO/2008/SN3 DTU 1, 72 h. (In general: Alamar Blue is a resazurin reagent that responds to reducing activity.)
Data set [17] is described as follows: Hepatotoxicity in Balb/c mouse infected with Trypanosoma cruzi MHOM/Pe/2011/Arequipa DTU 5 trypomastigotes assessed as change in total bilirubin level at 20 mg/kg, po once daily for 5 consecutive days starting from day 75 post infection measured on day 127 post infection (reference value: 0.23 mg/dl). It counts as toxicity, organism-based. Conditions: in vivo.

Data set [18] concerns Trypanosoma cruzi. The data set can be described thus: Antitrypanosomal activity against Trypanosoma cruzi MHOM/Pe/2011/Arequipa DTU 5 epimastigotes assessed as effect on parasite glycolytic pathway by measuring decrease in ethanol excretion at IC25 after 72 hrs by 1H NMR method. The format is functional, organism-based.
For data set [19], the system named is Trypanosoma cruzi. In words: Trypanocidal activity against Trypanosoma cruzi MHOM/Pe/2011/Arequipa DTU 5 amastigotes infected in African green monkey Vero cells assessed as reduction in infected cells at <= 12 uM after 72 hrs by Giemsa-staining based assay. The format is functional, organism-based.
Data set [20] relates to Trypanosoma cruzi. In words: Antitrypanosomal activity against Trypanosoma cruzi MHOM/Pe/2011/Arequipa DTU 5 epimastigotes assessed as effect on parasite glycolytic pathway by measuring increase in L-alanine excretion at IC25 after 72 hrs by 1H NMR method. It counts as functional, organism-based.
The subject of data set [21] is Trypanosoma cruzi. The data set can be described thus: Antitrypanosomal activity against Trypanosoma cruzi MHOM/Pe/2011/Arequipa DTU 5 epimastigotes assessed as effect on parasite glycolytic pathway by measuring increase in acetate excretion at IC25 after 72 hrs by 1H NMR method. The format is functional, organism-based.
Data set [22] in a line: Hepatotoxicity in Balb/c mouse infected with Trypanosoma cruzi MHOM/Pe/2011/Arequipa DTU 5 trypomastigotes assessed as change in ratio of serum AST to GOT level at 20 mg/kg, po once daily for 5 consecutive days starting from day 10 post infection measured on day 127 post infection by biochemical analysis (reference value: 179 U/L). Conditions: in vivo. It counts as toxicity, organism-based.

The test system of data set [23] is Trypanosoma cruzi. In words: Antitrypanosomal activity against Trypanosoma cruzi MHOM/Pe/2011/Arequipa DTU 5 epimastigotes assessed as effect on parasite glycolytic pathway by measuring increase in ethanol excretion at IC25 after 72 hrs by 1H NMR method. It counts as functional.
In data set [24] the test system is Trypanosoma cruzi. In words: Antitrypanosomal activity against Trypanosoma cruzi MHOM/Pe/2011/Arequipa DTU 5 epimastigotes assessed as effect on parasite glycolytic pathway by measuring increase in pyruvate excretion at IC25 after 72 hrs by 1H NMR method. The format is functional, organism-based.
Data set [25] deals with Trypanosoma cruzi. The data set can be described thus: Antitrypanosomal activity against Trypanosoma cruzi MHOM/Pe/2011/Arequipa DTU 5 epimastigotes assessed as effect on parasite glycolytic pathway by measuring increase in D-lactate excretion at IC25 after 72 hrs by 1H NMR method. The format is functional, organism-based.
The test system of data set [26] is Trypanosoma cruzi. The data set can be described thus: Trypanocidal activity against Trypanosoma cruzi MHOM/Pe/2011/Arequipa DTU 5 amastigotes infected in African green monkey Vero cells assessed as infected cells at 50 uM after 72 hrs by Giemsa-staining based assay. The format is functional.

Activity calls are given as the source filed them. The calls are words filed in the database; no cut-off is given here.

As to `O=C(Cn1ccnc1[N+](=O)[O-])NCc1ccccc1` [BENZNIDAZOLE], the Activity in data set [1] is > 40 U/L; in [2], 10%; in [3] it was 20 to 30 mg/dL; in [4] it was 10 to 20 U/L; in data set [5] it was 20 to 30 U/L; in data set [6], 20 to 30 U/L. Also, the Activity in [7] is 10 to 20 U/L; in data set [8], 10 to 20 U/L; in [9], 20%.
On to `CCCCCCNc1c(N(C)CCCN(C)C)c(=O)c1=O`, for which the Activity is 30% in the data set on Trypanosoma cruzi [10], 10 to 20 mg/dL in [13], 10 to 20 mg/dL in data set [15] and 0.2 mg/dL in data set [17]. In addition, the result with Trypanosoma cruzi [11], in the data set with Trypanosoma cruzi [12], in the data set with Trypanosoma cruzi [14] and with Trypanosoma cruzi [18] was Active. Moreover, the concentration for half-maximal inhibition (IC50) (in general, the concentration that gives 50% inhibition) in the data set on Trypanosoma cruzi [16] was 15.8 µM. The outcome with Trypanosoma cruzi [19] was inactive.
`CCCCCCCCCCCCCCCCNc1c(N(C)CCCN(C)C)c(=O)c1=O`: the outcome in the data set on Trypanosoma cruzi [20], with Trypanosoma cruzi [21], in the data set with Trypanosoma cruzi [24] and in the data set on Trypanosoma cruzi [25] was Active. The Activity was 179 U/L in data set [22]; 51% in the data set with Trypanosoma cruzi [23]; 20 to 30 mg/dL in data set [15]; 0 in the data set on Trypanosoma cruzi [26]; 10% in [9]. Further, the half-inhibitory concentration (IC50) in the data set with Trypanosoma cruzi [16] turned out to be 5.4 µM.
